Each structure is given as a SMILES string. Counter-ions that a name gives are not always drawn.

This assay concerns the target T1, Adrenergic β2 (Homo sapiens, UniProt P07550).
T1 construct: Adherent H292 cells were removed from tissue culture flasks; endogenous in cells; host or cells: H292 cells
Description: Adrenergic β2 mediated cAMP production in H292 cells (AlphaScreen). The assay is classed as cell-based. The note with it: Intrinsic Activity as a fraction relative to the maximum activity determined for formoterol. As to the method: Adrenergic β2 Mediated cAMP Production
H292 cells were grown in 225 cm2 flasks incubator at 37° C., 5% CO2 in RPMI medium containing, 10% (v/v) FBS (foetal bovine serum) and 2 mM L-glutamine.
Adherent H292 cells were removed from tissue culture flasks by treatment with Accutase™ cell detachment solution for 15 minutes. Flasks were incubated for 15 minutes in a humidified incubator at 37° C., 5% CO2. Detached cells were re-suspended in RPMI media (containing 10% (v/v) FBS and 2 mM L-glutamine) at 0.05×10^6 cells per mL. 5000 cells in 100 μL were added to each well of a tissue-culture-treated 96-well plate and the cells incubated overnight in a humidified incubator at 37° C., 5% CO2. The culture media was removed and cells were washed twice with 100 μL assay buffer and replaced with 50 μL assay buffer (HBSS solution containing 10 mM HEPES pH7.4 and 5 mM glucose). […]
The concentration of cAMP (cyclic adenosine monophosphate) in the cell lysate was determined using AlphaScreen™ methodology. […] The AlphaScreen™ signal was measured using an EnVision spectrophotometer (Perkin-Elmer Inc.) with the recommended manufacturer's settings. cAMP concentrations were determined by reference to a calibration curve determined in the same experiment using standard cAMP concentrations. […] Intrinsic Activity was expressed as a fraction relative to the maximum activity determined for formoterol in each experiment.
On the technique in general: cAMP levels reflect the balance of adenylyl cyclase and phosphodiesterase activity.

T1 sequence (P07550 whole entry): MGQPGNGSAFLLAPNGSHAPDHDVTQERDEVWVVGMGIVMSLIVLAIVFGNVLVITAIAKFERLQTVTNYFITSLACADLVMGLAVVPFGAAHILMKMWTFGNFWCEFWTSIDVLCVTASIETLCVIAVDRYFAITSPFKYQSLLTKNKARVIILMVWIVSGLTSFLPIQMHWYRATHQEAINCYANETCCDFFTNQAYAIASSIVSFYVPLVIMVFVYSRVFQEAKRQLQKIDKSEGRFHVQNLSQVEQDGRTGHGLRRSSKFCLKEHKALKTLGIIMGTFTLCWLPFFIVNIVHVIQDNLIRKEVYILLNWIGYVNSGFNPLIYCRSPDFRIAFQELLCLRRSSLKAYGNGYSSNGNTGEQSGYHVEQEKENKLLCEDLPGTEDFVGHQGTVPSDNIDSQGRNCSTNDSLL

Take `O=c1[nH]c2c(O)ccc([C@@H](O)CNCCSCCCNCCc3ccccc3Cl)c2s1` [Compound A, 7-[(1R)-2-({2-[(3-{[2-(2-Chlorophenyl)ethyl]amino}-propyl)thio]ethyl}amino)-1-hydroxyethyl]-4-hydroxy-1,3-benzothiazol-2(3H)-one dihydrobromide]: the “β2 Int Act” value is recorded as 0.8.

The record behind these values is patent publication US20100016388A1, “Salts of a Selective Beta-2 Andrenoceptor Agonist” (priority 2007, published 2010).
